Experimental data from patent publication US20210369583A1, “COMPOSITIONS FOR PROVIDING SKIN CARE BENEFITS AND METHODS OF USE” (Danisco US Inc., priority 2018, published 2021).

Key:
Type in all cases: cell-based
[1] = test system: human living skin explant; experiment: Immunostaining of carbonylated proteins (FTZ) on human living skin explants
Description: human skin explants of an average diameter of 12 mm (±1 mm) were prepared on an abdoplasty coming from a person). The explants were kept in survival in BEM culture medium at 37° C. in a humid, 5%-CO2 atmosphere.
On day 0 (D0), day 1, day 2 and day 3 (3 hours before irradiation), the tested products were applied topically on surface of skin explants at the rate of 2 mg/cm^2, twice a day for D1 and D2 and once on DO and D3. […] The medium was half renewed (1 ml per well) on day 2.
On D3, the culture media of all the batches was replaced by HBSS solution (Hank's Balanced Saline Solution; 1 ml per explant). The batches “UV” were irradiated by UVA+ UVB using a UV simulator Vibert Lourmat RMX 3W with a dose of 18 J/cm2 of UVA (4 MED, minimal erythemal dose) and 0.3 J/cm2 of UVB (2 MED). The unirradiated batches were kept in HBSS in the dark. At the end of the irradiation the explants were put back in 2 mL of BEM medium.
After fixation for 24 hours in buffered formalin, the samples were dehydrated and impregnated in paraffin using a Leica PEARL dehydration automat. The samples were embedded using a Leica EG 1160 embedding station. 5-μm-thick sections were made using a Leica RM 2125 Minot-type microtome, and the sections were mounted on Superfrost® histological glass slides. The frozen samples were cut into 7-μm-thick sections using a Leica CM 3050 cryostat. Sections were then mounted on Superfrost® plus silanized glass slides. The microscopical observations were realized using a Leica DMLB or Olympus BX43 microscope. Pictures were digitized with a numeric DP72 Olympus camera with CellD storing software.
Protein carbonylation is a type of protein oxidation that can be promoted by reactive oxygen species (ROS), generated by UV exposure. FTZ marker assay was conducted by immunostaining in the living epidermis of human skin explant as follows: Carbonylated proteins were stained on frozen sections with the anti-carbonylated proteins probe (fluorescein-5-thiosemicarbazid-FTZ) (Lifetechnologies, Ref. F-121) diluted at 0.5 μM in MES-Na+ and incubated for 30 minutes in the dark and at room temperature. The staining was observed by epifluorescence and assessed by microscopical observations. Batches analyzed were T, TUV, P1UV, P2UV, P3UV at day 4 also referred to as TJ4, TUVJ4, P1UVJ4, P2UVJ4, P3UVJ4

MT-1H (Metallothionein) = experiment: Immunostaining of MT-1H in human skin explants, image analysis; settings: after pollutants exposure
Description: (§1) 59 human skin explants of an average diameter of 14 mm (±1 mm) were prepared on an abdoplasty coming from a person. The explants were kept in survival in BEM culture medium at 37° C. in a humid, 5%-CO2 atmosphere.
(§2) The tested products were topically applied on the basis of 2 μl per cm^2 and spread using a small spatula twice a day (morning and evening) on day 0, 1, 2, 3 and 4.
(§3) On D4, the explants of the batches ML and PML were placed on the 3D grid with 900 μl of HBSS and placed into the PolluBox® system.
(§4) 3 mL of the solution <<ML>> (supplemented with 150 μl/ml of NaCl 0.9%) were exposed by vaporization for 1 hour and half, as shown in the figure below.
Metallothionein (MT) is a unique heat-stable protein with a metal binding domain consisting of 20 cysteine residues. […] The immunostaining was performed using an automated slide processing system (Autostainer, Dako) and assessed by microscopical observation. […]
(§5) The images analyses were performed on all the images (9 to 12 images) of each batch using the CellD storing software (Olympus Microscopy, Matrix Optics (M)SdnBhd, Taman Mayhang, Maylasia). For each batch of explants, the percentage of the region of interest covered by the staining (stained surface percentage) was determined by image analysis. […]
Analyzed batches: T, P2, ML, P2ML (4 batches, 3 explants/batch, so 12 explants) at day 5 referred to as: TJ5, P2J5, MLJ5, P2MLJ5.

HO-1 (Heme-Oxygenase-1) = experiment: Immunostaining of HO-1 in human skin explants, image analysis
Description: as §1, §2, §3, §4
Heme-Oxygenase is a phase II skin anti-oxidant enzyme which generates cell anti-oxidant molecules. […] The immunostaining was performed using an automated slide processing system (Autostainer, Dako) and assessed by microscopical observation. […]
as §5
Analyzed batches: T, P2, ML, P2ML (4 batches, 3 explants/batch, so 12 explants at day 5 referred to as TJ5, P2J5, MLJ5, P2MLJ5.

O=C(O)[C@@H]1CCCN1 [Combination P4, L-Proline]
effect on UV-induced carbonylated proteins ([1]; UV irradiated): inhibited the formation of carbonylated proteins
Carbonylated proteins (FTZ), variation vs TJ4 ([1]; non irradiated, day 4): ↔ (indicates no variation)
effect on pollutant-induced MT-1H (MT-1H (Metallothionein)): seems to strongly reduce the effect of the pollutants
effect on pollutant-induced HO-1 (HO-1 (Heme-Oxygenase-1); after pollutants exposure): strongly reduced the effect of the pollutants
effect on HO-1 expression (HO-1 (Heme-Oxygenase-1); without pollutants, D5): does not seem to affect the HO-1 expression
